Test results from patent publication US20210290741A1, “COMPOSITIONS FOR THE TREATMENT OF GRAFT VERSUS HOST DISEASE” (DA VOLTERRA, priority 2018, published 2021).

Tested on: acute Graft vs Host disease
Assay: Acute graft vs host disease after bone marrow + T cell transplant in lethally irradiated mice, survival (Example 5)
Assay type: in vivo, mice (129, female)
Details: 129 mice, C57BL/6 bone marrow + T cells at day 0, imipenem 100 mg/kg s.c. 3 times a week day 10-21, activated charcoal 14.4 mg/g in food day 9-22
Description: 30 mice (129, female) were lethally irradiated and transplanted with 5 million C57BL/6 T-cell depleted bone marrow cells as well as 1 million C57BL/6 splenic T cells at day 0.
The mice were then split in 3 groups. In group A, they received no further treatment. In group B, an imipenem treatment was initiated at day 10. It consisted of an administration of imipenem (100 mg/kg), 3 times a week by subcutaneous route. The imipenem treatment was stopped at day 21. In group C, the same imipenem treatment as group B was performed. In addition, group C mice received activated charcoal (14.4 mg/g) mixed with their food in a hydrogel every day from day 9 to day 22.
The clinical status of the mice was monitored every day from day 1 to day 21.

## C[C@@H](O)[C@H]1C(=O)N2C(C(=O)O)=C(SCCN=CN)C[C@H]12 [imipenem]
  Survival at day 21: 60%
